# Results reported in patent publication US20020013342A1, “Treatment of central nervous system disorders with selective estrogen receptor modulators” (priority 1997, published 2002).
# Counter-ions that a name gives are not always drawn.
# Tests used:
# [1] = HPLC/UV analysis of liver and cerebral cortex homogenates for parent drug, primary metabolite and glucuronide conjugates; format: in vivo, Female Fischer 344 rats; conditions: for peaks corresponding to the glucuronide conjugates in the HPLC chromatogram of the cerebral cortex homogenate: eight hours after dosing
# Description: A liver and cerebral cortex homogenate were analyzed by HPLC and UV detection at 315 nm to determine if the radioactivity in these tissues was actually due to the drug initially dosed, to the primary metabolite, 6-hydroxy-2-(4-hydroxyphenyl)-3-[4-(piperidinoethoxy)phenoxy]-benzo[b]thiophene, or there glucuronide conjugates. The cerebral cortex sample was obtained eight hours after dosing and the liver samples were collected at four and eight hours after dosing. The proteins in the homogenate were precipitated with acetonitrile and the supernate was evaporated to dryness. The residue was reconstituted in mobile phase and injected onto a SynChropak SCD-100 column with the initial mobile phase composed of […]. (v/v/v). The retention times of the peaks from the homogenate were compared with those obtained from authentic samples of 6-hydroxy-2-(4-methoxyphenyl)-3-[4-(piperidinoethoxy)phenoxy]benzo[b]thiophene and its metabolite, 6-hydroxy-2-(4-hydroxyphenyl)-3-[4-(piperidinoethoxy)phenoxy]benzo [b]-thiophene.
# [2] = test system: gene expression in the hippocampus; assay: Differential mRNA display in hippocampi of ovariectomized rats after five weeks of daily treatment; format: in vivo, female Sprague-Dawley rats; conditions: 1 mg/kg daily subcutaneous, comparator estradiol benzoate 0.03 mg/kg
# Description: A commonly employed model of estrogen depletion is the ovariectomized adult rat. An experiment was conducted in ovariectomized rats using differential mRNA display to determine the similarities and/or differences between a representative compound of the present invention, 6-hydroxy-2-(4-methoxyphenyl)-3-[4-(2-piperidinoethoxy)phenoxy]-benzo[b]thiophene, and estrogen at affecting gene expression in various brain regions. Specifically, female Sprague-Dawley rats, 6 weeks of age, were ovariectomized by the vendor. Following one week of acclimation to the laboratory facility, daily subcutaneous injections of estradiol benzoate (0.03 mg/kg) or 6-hydroxy-2-(4-methoxyphenyl)-3-[4-(2-piperidinoethoxy)phenoxy]-benzo[b]thiophene (1 mg/kg), or vehicle (control) were initiated.
# After five weeks of daily treatment, animals were sacrificed and their brains removed and hippocampi collected by microdissection. The hippocampi were fast frozen in liquid nitrogen and stored at −70_C. Total RNA was prepared from pooled tissue from the appropriate treatment and control groups and reverse transcribed using a 3′ oligonucleotide primer which selected for specific mRNA (poly-A+) populations. Polymerase chain reactions (PCR) were carried out in a cocktail consisting of: random 5′ oligonucleotides (10 base-pairs in length; total of 150), reaction buffer, Taq polymerase, and a ^32PdTCP. […]
# [3] = Distribution of radioactivity among tissues after a single oral dose of 14C-labeled compound in the female F344 rat; format: in vivo, Female Fischer 344 rats
# Description: Female Fischer 344 rats (approximately twelve weeks old) were given a single oral gavage dose of 5 mg/kg (30 mCi/kg) of ^14C-labeled 6-hydroxy-2-(4-methoxyphenyl)-3-[4-(piperidinoethoxy)phenoxy]benzo[b]thiophene hydrochloride in 50% PEG 300/50% water. Blood and tissues were collected from three rats at each time point: just prior to dosing and at 2, 4, 8, and 24 hours after dosing. At each time point, the animals were sacrificed, blood samples were collected and the heparinized blood was centrifuged and the plasma obtained. Following collection of the bloood sample in each case, the animals were perfused with 0.9% saline solution and the brain, pituitary, femurs, ovaries, uterus and liver were surgically removed and placed in separate containers. […]
# The radioactivity of each sample was determined by liquid scintillation spectrometry. Plasma was counted directly, while the other tissues were either homogenized, digested, or oxidized prior to liquid scintillation counting. […]
# Samples were oxidized on a Packard Model307 Oxidizer and the resulting ^14CO2 trapped for liquid scintillation counting. The radioactivity in each tissue sample was converted to nanogram equivalents per gram of tissue (specific activity=16.3 dpm/ng). The 0-24 hour area under the curve (AUC0-24 hr) was calculated for each sample.
SMILES,melting point,further results
"COc1ccc(-c2sc3cc(OC)ccc3c2Oc2ccc(OCCN3CCCCC3)cc2)cc1 (as salt: hydrochloride) [Example 2, [6-methoxy-3-[4-[2-(1-piperidinyl)ethoxy]-phenoxy]-2-(4-methoxyphenyl)]benzo[b]thiophene hydrochloride salt]",216 to 220 °C,–
"COc1ccc(-c2sc3cc(OC)ccc3c2Oc2ccc(OCCN3CCCCCC3)cc2)cc1 (as salt: hydrochloride) [Example 4, [6-Methoxy-3-[4-[2-(1-hexamethyleneimino)ethoxy]phenoxy]-2-(4-methoxyphenyl)]benzo[b]thiophene Hydrochloride]",189 to 192 °C,–
"CCN(CC)CCOc1ccc(Oc2c(-c3ccc(OC)cc3)sc3cc(OC)ccc23)cc1 (as salt: hydrochloride) [Example 5, [6-Methoxy-3-[4-[2-(1-N,N-diethylamino)ethoxy]phenoxy]-2-(4-methoxyphenyl)]benzo[b]thiophene Hydrochloride]",196 to 198 °C,–
"COc1ccc(-c2sc3cc(OC)ccc3c2Oc2ccc(OCCN3CCOCC3)cc2)cc1 (as salt: hydrochloride) [Example 6, [6-Methoxy-3-[4-[2-(morpholino)ethoxy]-phenoxy]-2-(4-methoxyphenyl)]benzo[b]thiophene Hydrochloride]",208 to 211 °C,–
"Oc1ccc(-c2sc3cc(O)ccc3c2Oc2ccc(OCCN3CCOCC3)cc2)cc1 (as salt: hydrochloride) [Example 13, [6-Hydroxy-3-[4-[2-(morpholino)ethoxy]-phenoxy]-2-(4-hydroxyphenyl)]benzo[b]thiophene Hydrochloride]",157 to 162 °C,–
"COc1ccc2c(Oc3ccc(OCCN4CCCCC4)cc3)c(-c3ccc(O)cc3)sc2c1 (as salt: hydrochloride) [Example 17, [6-methoxy-3-[4-[2-(1-piperidinyl)ethoxy]-phenoxy]-2-(4-hydroxyphenyl)]benzo[b]thiophene Hydrochloride]",215 to 217 °C,–
"COc1ccc(-c2sc3cc(OC)ccc3c2Oc2ccc(OCCN3CCCCC3)cc2)cc1 (as salt: oxalate) [Example 1, [6-methoxy-3-[4-[2-(1-piperidinyl)ethoxy]-phenoxy]-2-(4-methoxyphenyl)]benzo[b]thiophene Oxalate Salt]",197 to 200 °C (dec.),–
"COc1ccc(-c2sc3cc(OC)ccc3c2Oc2ccc(OCCN3CCCC3)cc2)cc1 [Example 3, [6-Methoxy-3-[4-[2-(1-pyrolodinyl)ethoxy]-phenoxy]-2-(4-methoxyphenyl)]benzo[b]thiophene]",95 to 98 °C,–
"Oc1ccc(-c2sc3cc(O)ccc3c2Oc2ccc(OCCN3CCCCC3)cc2)cc1 [Example 7, [6-Hydroxy-3-[4-[2-(1-piperidinyl)ethoxy]-phenoxy]-2-(4-hydroxyphenyl)]benzo[b]thiophene]",–,peaks corresponding to the glucuronide conjugates in the HPLC chromatogram of the cerebral cortex homogenate [1]: not observed
"Oc1ccc(-c2sc3cc(O)ccc3c2Oc2ccc(OCCN3CCCC3)cc2)cc1 [Example 10, [6-Hydroxy-3-[4-[2-(1-pyrolidinyl)ethoxy]-phenoxy]-2-(4-hydroxyphenyl)]benzo[b]thiophene]",99 to 113 °C,–
"Oc1ccc(-c2sc3cc(O)ccc3c2Oc2ccc(OCCN3CCCCCC3)cc2)cc1 [Example 11, [6-Hydroxy-3-[4-[2-(1-hexamethyleneimino)ethoxy]phenoxy]-2-(4-hydroxyphenyl)]benzo[b]thiophene]",125 to 130 °C,–
"CCN(CC)CCOc1ccc(Oc2c(-c3ccc(O)cc3)sc3cc(O)ccc23)cc1 [Example 12, [6-Hydroxy-3-[4-[2-(1-N,N-diethylamino)ethoxy]phenoxy]-2-(4-hydroxyphenyl)]benzo[b]thiophene]",137 to 141 °C,–
"COc1ccc(-c2sc3cc(O)ccc3c2Oc2ccc(OCCN3CCCCC3)cc2)cc1 [Example 14, [6-Hydroxy-3-[4-[2-(1-piperidinyl)ethoxy]-phenoxy]-2-(4-methoxyphenyl)]benzo[b]thiophene]",–,mRNA display pattern in rat hippocampus compared with that observed for estrogen [2]: parallel pattern of gene activation or inactivation
"COc1ccc(-c2sc3cc(O)ccc3c2Oc2ccc(OCCN3CCCCC3)cc2)cc1 [Example 15, [6-Hydroxy-3-[4-[2-(1-piperidinyl)ethoxy]-phenoxy]-2-(4-methoxyphenyl)]benzo[b]thiophene Hydrochloride Salt]",–,time after dosing at which peak levels of radioactive material were reached ([3]; all tissues with the exception of the liver): 8 h; time after dosing at which peak levels of radioactive material were reached ([3]; liver): 4 h; peaks corresponding to the glucuronide conjugates in the HPLC chromatogram of the cerebral cortex homogenate [1]: not observed; peaks in the HPLC chromatogram of the liver homogenates ([1]; liver samples collected at four and eight hours after dosing): peaks whose retention times corresponded to the parent compound and its glucuronide conjugate
"COc1ccc2c(Oc3ccc(OCCN4CCCCC4)cc3)c(-c3ccc(O)cc3)sc2c1 [Example 16, [6-methoxy-3-[4-[2-(1-piperidinyl)ethoxy]phenoxy]-2-(4-hydroxyphenyl)]benzo[b]thiophene]",147 to 150 °C,–
